Results published in patent EP3381898A1, “SYMMETRICAL TRIS-ARYL-AMIDE DERIVATIVES AND THEIR USE AS ANTI-HEPARANASE” (priority 2017, dated 2018).

Columns and labels:
Type in all cases: cell-based, human
[1] = test system: FGF-1; assay: Real-Time Quantitative PCR of mRNA gene expression in HT1080 cells; conditions: 24 h, 2.5 uM, mean value
Procedure: (§1) To evaluate the effect of heparanase inhibitors on the tumor transcription of genes encoding for proangiogenic factors, such as FGF1/2, VEGF, MMP-9, HSPE-1, the relative mRNA levels were analyzed by quantitative Real-Time Quantitative PCR.
(§2) To perform the assay, HT1080 (human fibrosarcoma) cells were cultured in complete medium containing 10%FCS (fetal calf serum). Cells were plated in 24-well plates and treated at fixed concentration (i.e., highest non-toxic concentration) of test compounds. After 24 h, cells were detached, collected and total RNA extracted by RNeasy Mini Kit (QIAGEN). Following reverse transcription step, FGF1/2, VEGF, MMP-9, HSPE-1 mRNA levels, were quantified by qPCR using the advanced Universal SYBR Green Supermix (Bio Rad) and ABI PRISM 7900HT Thermal Cycler System (Perkin Elmer), according to the manufacturer's instructions. Appropriate no-RT and non-template controls were included in each 96-well PCR reaction, and dissociation analysis was performed at the end of each run to confirm the specificity of the reaction. Relative levels of RNA were calculated using the ddCt method. Standard curve and sample data were run in duplicate. In Table 4 a mean value is reported.

[2] = test system: FGF-2; assay: as above; conditions: 24 h, 2.5 uM, mean value
Procedure: as §1, §2

[3] = test system: HPSE-1; assay: as above; conditions: 24 h, 2.5 uM, mean value
Procedure: as §1, §2

[4] = test system: MMP-9; assay: as above; conditions: 24 h, 2.5 uM, mean value
Procedure: as §1, §2

[5] = test system: VEGF; assay: as above; conditions: 24 h, 2.5 uM, mean value
Procedure: as §1, §2

[6] = test system: genes encoding for proangiogenic factors; assay: Real-Time Quantitative PCR in HT1080 cells, summary statement for all factors; conditions: 2.5 µM, result in words
Procedure: as §1
as §2, with “reported. […]” for “reported.”

Substance: 2,2'-{carbonylbis[imino[5-(trifluoromethyl)-3,1-phenylene]carbonylimino(1-methyl-1H-pyrrole-4,2-diyl)carbonylimino-3,1-phenylene(1-oxoethane-2,1-diyl)imino]}diethanoic acid [Compound 12i]
- Gene Expression (% mRNA vs. control) FGF-1 [1]: ~ 53%
- Gene Expression (% mRNA vs. control) FGF-2 [2]: ~ 82%
- Gene Expression (% mRNA vs. control) HPSE-1 [3]: ~ 63%
- Gene Expression (% mRNA vs. control) MMP-9 [4]: ~ 50%
- Gene Expression (% mRNA vs. control) VEGF [5]: ~ 55%
- inhibition of genes expression encoding for proangiogenic factors [6]: significant inhibition
